Laboratory results from US11730743B2, “Protection of cells from degeneration and treatment of geographic atrophy” (University of Kentucky Research Foundation, priority 2012, dated 2023).

What was measured:
human RPE cells = system: human RPE cells
Method: Cell viability. Cell viability measurements were performed using the CellTiter 96 AQueous One Solution Cell Proliferation Assay (Promega) in according to the manufacturer's instructions.
Cell culture. All cell cultures were maintained at 37° C. and 5% CO2. Primary mouse RPE cells were isolated as previously described (Yang et al., 2009) and grown in Dulbecco Modified Eagle Medium (DMEM) supplemented with 20% FBS and standard antibiotics concentrations. Primary human RPE cells were isolated as previously described (Yang et al., 2008) and maintained in DMEM supplemented with 10% FBS and antibiotics. HeLa cells were maintained in DMEM supplemented with 20% FBS and standard antibiotics concentrations. THP-1 cells were cultured in RPMI 1640 medium supplemented with 10% FBS and antibiotics.
Transient transfection. Human or mouse RPE cells were transfected with pUC19, pAlu, pCDNA3.1/Dicer-FLAG, pCDNA3.1, Alu RNA, NLRP3 siRNA sense, PYCARD siRNA sense, MyD88 siRNA sense, DICER1 antisense oligonucleotide (AS), control (for DICER1) AS, Alu AS, and control (for Alu) AS using Lipofectamine 2000 (Invitrogen) according to the manufacturer's instructions.
Cell viability. MTS assays were performed using the CellTiter 96 AQueous One Solution Cell Proliferation Assay (Promega) according to the manufacturer's instructions. For examining the cytoprotective effect of glycine in Alu RNA induced cell death, human RPE cells were transfected with pNull/pAlu. At 6 h post-transfection the cells were incubated with complete media containing glycine (5 mM) or vehicle, and cell viability was assessed after 24 h. Similarly, human RPE cells primed with LPS (5 μg/ml for 6 h) were treated with ATP (25 μM) in the presence of glycine containing media (5 mM). 30 min post ATP cell viability was assessed as described above.

wild-type mice = experiment: Laser-induced choroidal neovascularization; type: in vivo; conditions: intravitreous injection
Caspase-3 = Caspase-3 activation in the RPE of wild-type mice; type: in vivo; conditions: inhibitor intravitreous
Method: Drug treatments. siRNAs formulated in siRNA buffer (20 mM KCL, 0.2 mM MgCl2 in HEPES buffer at pH 7.5; Dharmacon) or phosphate buffered saline (PBS; Sigma-Aldrich); the TLR4 antagonist Ultra Pure Rhodobacter sphaeroides LPS (LPS-RS, InvivoGen), a peptide inhibitor of MyD88 homodimerization IMG-2005 (IMGENEX), control inhibitor (IMGENEX), recombinant IL-18 (Medical & Biological Laboratories), neutralizing rat antibodies against mouse IL-1β (IMGENEX), neutralizing rat antibodies against mouse IL-18 (Medical & Biological Laboratories), isotype control IgGs (R&D Systems or eBioscience as appropriate), Caspase-1 inhibitor Z-WEHD-FMK (R&D Systems), Caspase-3 inhibitor Z-DEVD-FMK (R&D Systems), Caspase control inhibitor Z-FA-FMK (R&D Systems), (2R,4R)-APDC (Enzo Life Sciences), Glipizide (Sigma-Aldrich), Glyburide (Sigma-Aldrich), and P2X7 receptor antagonist A438079 (Tocris Bioscience) were dissolved in phosphate buffered saline (PBS; Sigma-Aldrich) or dimethyl sulfoxide (DMSO; Sigma-Aldrich), and injected into the vitreous humor in a total volume of 1 μL with a 33-gauge Exmire microsyringe (Ito Corporation). […] As a control, Luc siRNA-chol (17+2 nt) was used with identical dosages.
Caspase-3 activity. The caspase-3 activity was measured using Caspase-3 Fluorimetric Assay (R&D Systems) according to the manufacturer's instruction.

Caspase-1 = biological target: T1, Caspase-1 (Homo sapiens, UniProt P29466); experiment: Caspase-1 activation in cultured cells (western blot p20, Caspalux1 substrate cleavage); type: cell-based; conditions: human RPE cells
T1 construct: endogenous in cells; host or cells: primary human RPE cells; also THP-1 and HeLa cells
T1 sequence (P29466 120-297 limits assumed): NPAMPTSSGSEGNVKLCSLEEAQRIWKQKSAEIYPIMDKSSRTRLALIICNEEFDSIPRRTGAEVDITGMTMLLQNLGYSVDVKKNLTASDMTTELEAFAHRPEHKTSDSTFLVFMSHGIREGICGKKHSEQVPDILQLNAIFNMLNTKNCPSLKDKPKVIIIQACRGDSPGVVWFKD
T1 sequence (P29466 317-404 limits assumed): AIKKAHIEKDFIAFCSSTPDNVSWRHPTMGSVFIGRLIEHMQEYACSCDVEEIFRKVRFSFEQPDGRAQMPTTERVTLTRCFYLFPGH
Method: Protein abundance and activity. Protein abundance was assessed by Western blot analysis using primary antibodies recognizing Caspase-1 (1:500; Invitrogen), pIRAK1 (1:500; Thermo Scientific), pIRAK4 (1:500, Abbomax, Inc), PYCARD (1:200, Santa Cruz Biotechnology), NLRP3 (1:500, Enzo Life Sciences) and Vinculin (1:1,000; Sigma-Aldrich). Caspase-1 activity was visualized using Caspalux1 E1D2 (OncoImmunin) reagent according to the manufacturer's instructions.
Western blotting. Tissues or cells were homogenized in lysis buffer (10 mM Tris base, pH 7.4, 150 mM NaCl, 1 mM EDTA, 1 mM EGTA, 1% Triton X-100, 0.5% NP-40, protease and phosphatase inhibitor cocktail (Roche)). Protein concentrations were determined using a Bradford assay kit (Bio-Rad) with bovine serum albumin as a standard. Proteins (40-100 μg) were run on NuPAGE Bis-Tris gels (Invitrogen) and transferred to Immun-Blot PVDF membranes (Bio-Rad). Cells were scraped in hot Laemmli buffer (62.5 mM Tris base, pH 6.8, 2% SDS, 5% 2-Mercaptoethanol, 10% Glycerol, 0.01% Bromophenol Blue). Samples were boiled and run on 4-20% NuPAGE Tris-Glycine gels (Invitrogen). The transferred membranes were blocked for 1 h at RT and incubated with antibodies against human Caspase-1 (1:500; Invitrogen), mouse Caspase1 (1:500; MBL), NLRP3 (1:1000; Enzo Life Sciences), PYCARD (1:1000, RayBiotech), phospho-IRAK1 (S376) (1:500, Thermo Scientific), phospho-IRAK4 (T345) (1:500, AbboMax), DICER1 (1:2,000; Bethyl), MyD88 (1:1,000; Cell Signaling), and mouse IL-18 (1:200; MBL) at 4° C. overnight. Protein loading was assessed by immunoblotting using an anti-Vinculin antibody (1:1,000; Sigma-Aldrich). The secondary antibodies were used (1:5,000) for 1 h at RT. […]
Caspase-1 activity. […] Caspalux1E1D2 signal was quantified reading the fluorescence (excitation 552 nm, emission 580 nm) using a Synergy 4 reader (Biotek). Quantification of fluorescence from images was performed by converting images into grayscale in Adobe Photoshop CS5, and measuring the integrated density of black and white images using ImageJ software (NIH) (Bogdanovich et al., 2008).

Substance: MyD88 inhibitory peptide: peptide inhibitor of MyD88 homodimerization IMG-2005 (IMGENEX)
- cell death in human RPE cells treated with antisense oligonucleotides targeting DICER1 (human RPE cells; DICER1 AS): prevented cell death
- pAlu-induced human RPE cell death (loss of cell viability) (human RPE cells; human RPE cells transfected with pAlu): inhibited cell death
- laser-induced choroidal neovascularization (wild-type mice): reduced
- Alu RNA-induced Caspase-3 activation in the RPE (Caspase-3): inhibited
- Alu RNA-induced fluorescent substrate cleavage (Caspase-1 activity) (Caspase-1; Caspalux1): did not reduce
- Alu RNA-induced Caspase-1 cleavage (p20 subunit) (Caspase-1; western blot): did not reduce
